Values quoted from earlier work as cited in patent US12029811B2, “Formulation and method for the treatment of androgenic alopecia” (CENTRO INTERNACIONAL DE COSMIATRÍA, S.A.P.I. DE C.V., priority 2018, dated 2024).

Experiments:
patients = conditions: oral, 5 mg tablets; impotence, erection failure, decreased libido, gynecomastia
alopecia = conditions: topical 5% solution (male) or 2% (female alopecia)

For `CC(C)(C)NC(=O)[C@H]1CC[C@H]2[C@@H]3CC[C@H]4NC(=O)C=C[C@]4(C)[C@H]3CC[C@]12C` [Finasteride, N-(1,1-dimethylethyl)-3-oxo-4-aza 5a-androst-1-en-17β-carboxamide], the “Side effects (in words)” value (patients) is listed as “side effects were significant”.
In the case of `Nc1cc(N2CCCCC2)nc(N)[n+]1[O-]` [Minoxidil, 2,6-diamino-4-(piperidin-1-yl) pyrimidine 1-oxide], the “Individuals responding to the treatment” value (alopecia) is listed as no more than 40%.
